Values of other authors in patent US20060057232A1, “Method of altering age perception” (priority 2004, published 2006).

Test system: sensitivity of observers to light
Details: (26)

c1ccncc1 [pyridine]
effect on sensitivity of observers to light: increase sensitivity of observers to light
